In article PMC10066365, “Nemacol is a small molecule inhibitor of C. elegans vesicular acetylcholine transporter with anthelmintic potential” (Nature Communications, 2023):
Several values for one entry are separate records, joined by “and”; a condition that tells them apart may be missing. Equal entries are not always repeated. Where two headings read alike, the source gives them in different places.

Legend:
[1] = tested on: C. elegans; experiment: C. elegans motor phenotype scoring on solid media (Punc/jerky-unc, coiled, paralyzed), wild-type young adults; assay type: in vivo, Caenorhabditis elegans; conditions: for atypical locomotion (number of animals) / coiled (number of animals) / no phene (number of animals) / paralyzed (number of animals) / any phene: mean % fraction of young adults exhibiting any phenotype (coiled, jerky-Unc or paralyzed): one hour; for atypical locomotion (number of animals) / coiled (number of animals) / no phene (number of animals) / paralyzed (number of animals): young adults, 20 animals per trial, single technical replicate; for any phene: mean % fraction of young adults exhibiting any phenotype (coiled, jerky-Unc or paralyzed): mean of three biological replicates
[2] = target: T1, rat VAChT (Rattus norvegicus, UniProt Q62666); experiment: [3H]Vesamicol competitive radioligand binding, PC12 cells expressing ratVAChT; conditions: [3H]Vesamicol binding
T1 construct: expressed in transfected cells; host or cells: rat PC12 (PC12 A123.7) cells, stably transfected; shared by Dr. Ali Roghani (Texas Tech University)
T1 sequence (Q62666 1-530): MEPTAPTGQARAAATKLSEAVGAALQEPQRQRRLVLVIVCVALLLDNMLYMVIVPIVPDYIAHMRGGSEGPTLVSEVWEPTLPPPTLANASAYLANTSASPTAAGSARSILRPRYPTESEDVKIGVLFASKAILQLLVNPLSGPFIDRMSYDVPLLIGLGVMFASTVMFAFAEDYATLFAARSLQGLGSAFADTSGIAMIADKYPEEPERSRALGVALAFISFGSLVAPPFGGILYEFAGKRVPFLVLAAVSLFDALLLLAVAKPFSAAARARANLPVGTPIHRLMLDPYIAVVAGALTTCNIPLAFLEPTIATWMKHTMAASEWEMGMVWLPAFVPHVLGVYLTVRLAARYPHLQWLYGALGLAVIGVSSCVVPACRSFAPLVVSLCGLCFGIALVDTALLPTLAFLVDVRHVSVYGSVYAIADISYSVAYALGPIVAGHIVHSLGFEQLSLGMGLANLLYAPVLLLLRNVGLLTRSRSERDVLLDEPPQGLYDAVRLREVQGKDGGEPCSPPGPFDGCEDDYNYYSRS

[3] = tested on: Dirofilaria immitis microfilariae; experiment: Dirofilaria immitis microfilariae immobility assay (DiroImager, 72 h); conditions: Dirofilaria immitis microfilariae
Summary of the method: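 About 250 freshly purified microfilariae of the Missouri isolate per well in supplemented RPMI 1640, exposed to compound for 72 h. Motility scored by automated whole-plate optical imaging; medium with 1% DMSO as negative control.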

[4] = tested on: Dirofilaria immitis L3/L4; experiment: Dirofilaria immitis L3/L4 motility assay (DiroImager, 72 h); conditions: Dirofilaria immitis L4
[5] = tested on: Haemonchus contortus; experiment: Haemonchus contortus L3 Migration Trap Assay (motility, 24 h exposure); conditions: for efficacy: hc weybridge, motilityTrap24hNoWash, 24 h, single wells
[6] = tested on: Pristionchus pacificus; experiment: Pristionchus pacificus motor disruption dose-response on solid media, 1 h; conditions: for mean % any phene: any phenotype (coiled, jerky-Unc or paralyzed) at one hour, mean of three biological replicates
[7] = conc 3.75, count of 20 animals per trial, one hour
[8] = conc 15, count of 20 animals per trial, one hour
[9] = conc 60, count of 20 animals per trial, one hour

CC1CCC(N2CCN(c3ccc(F)cc3)CC2)CC1 (stereo not drawn) [Nemacol-53]
atypical locomotion (number of animals) ([1]; 3.75uM): 6 and 2 and 1 and 3 and 13 and 8 | coiled (number of animals) ([1]; 3.75uM): 0 | no phene (number of animals) ([1]; 3.75uM): 14 and 18 and 19 and 17 and 7 and 12 | paralyzed (number of animals) ([1]; 3.75uM): 0 | any phene: mean % fraction of young adults exhibiting any phenotype (coiled, jerky-Unc or paralyzed) ([1]; 3.75uM): 27.5% | atypical locomotion (number of animals) ([1]; 15uM): 3 and 9 and 11 and 13 and 18 and 17 | coiled (number of animals) ([1]; 15uM): 0 and 1 and 4 and 3 and 2 | no phene (number of animals) ([1]; 15uM): 4 and 2 and 0 and 3 | paralyzed (number of animals) ([1]; 15uM): 13 and 8 and 5 and 4 and 0 | any phene: mean % fraction of young adults exhibiting any phenotype (coiled, jerky-Unc or paralyzed) ([1]; 15uM): 92.5% | atypical locomotion (number of animals) ([1]; 60uM): 0 and 2 | coiled (number of animals) ([1]; 60uM): 13 and 15 and 9 and 12 and 16 | no phene (number of animals) ([1]; 60uM): 0 | paralyzed (number of animals) ([1]; 60uM): 7 and 5 and 9 and 6 and 2 | EC50 ([1]; Caenorhabditis elegans, any motor phenotype after 1 h on solid media, ± 95% CI, read-out: C. elegans - motor disruption EC50): 5.5 ± 1.6 µM | Ki ([2]; PC12, experiment 1, read-out: expt 1 Ki (M) vs. rat VAChT (PC12)): 5.54e-07 M | Ki ([2]; PC12, experiment 2, read-out: expt 2 Ki (M) vs. rat VAChT (PC12)): 1.04e-06 M | Ki ([2]; rat VAChT (PC12), mean of 2-3 experiments, read-out: mean Ki): 7.98e-07 M | % effect (motility), DIROIM MF ([3]; 0.016 µM): 0% | % effect (motility), DIROIM MF ([3]; 0.08 µM): 0% | % effect (motility), DIROIM MF ([3]; 0.4 µM): 0% | % effect (motility), DIROIM MF ([3]; 2 µM): 0% | % effect (motility), DIROIM MF ([3]; 10 µM): 0% | % effect (motility), DIROIM L4 ([4]; 10 µM): 5% | % effect (motility), DIROIM L4 ([4]; 50 µM): 20% | effect on Ivermectin's ability to paralyze H. contortus ([5]; EC30 concentration of Nemacol-53 (26.4 µM), P = 0.002): significantly enhance | EC30 ([5]; H. contortus L3 motility): 26 µM | EC50 ([5]; Haemonchus contortus): 40.6 µM | EC50 ([6]; Pristionchus pacificus, 1 h, read-out: P. pacificus motor disruption EC50): 12.8 ± 1.2 µM | mean % any phene ([6]; conc 3.75): 8.333% | rep 1 atypical locomotion [6, 7]: 2 and 3 | rep 1 coiled [6, 7]: 0 | rep 1 no phene [6, 7]: 18 and 17 | rep 1 paralyzed [6, 7]: 0 | rep 2 atypical locomotion [6, 7]: 1 | rep 2 coiled [6, 7]: 0 | rep 2 no phene [6, 7]: 19 | rep 2 paralyzed [6, 7]: 0 | rep 3 atypical locomotion [6, 7]: 2 and 1 | rep 3 coiled [6, 7]: 0 | rep 3 no phene [6, 7]: 18 and 19 | rep 3 paralyzed [6, 7]: 0 | mean % any phene ([6]; conc 15): 57.5% | rep 1 atypical locomotion [6, 8]: 12 and 13 | rep 1 no phene [6, 8]: 7 | rep 1 paralyzed [6, 8]: 0 | rep 2 paralyzed [6, 8]: 0 | rep 3 coiled [6, 8]: 2 | mean % any phene ([6]; conc 60): 100% | rep 1 atypical locomotion [6, 9]: 0 | rep 1 coiled [6, 9]: 8 and 13 | rep 1 no phene [6, 9]: 0 | rep 1 paralyzed [6, 9]: 12 and 7 | rep 2 coiled [6, 9]: 9 and 14 | rep 2 no phene [6, 9]: 0 | rep 2 paralyzed [6, 9]: 10 and 6 | rep 3 atypical locomotion [6, 9]: 2 and 1 | rep 3 coiled [6, 9]: 7 and 12 | rep 3 no phene [6, 9]: 0 | rep 3 paralyzed [6, 9]: 11 and 7

CC1CCC(N2CCN(c3ccc(F)cc3)CC2)CC1 (stereo not drawn) [Nemacol_53]
efficacy ([5]; dose 0.00488281 µM): 0 | efficacy ([5]; dose 0.0195312 µM): 0 | efficacy ([5]; dose 80 µM): 90.3789 and 92.5148 and 88.1185

c1ccc(N2CCN(CC3CCCC3)CC2)cc1 [Nemacol_62]
efficacy ([5]; dose 5 µM): 0 | efficacy ([5]; dose 20 µM): 0 | efficacy ([5]; dose 80 µM): 0
